Data: US20100317671A1, “XANTHINE-BASED CYCLIC GMP-ENHANCING RHO-KINASE INHIBITOR INHIBITS PHYSIOLOGICAL ACTIVITIES OF LUNG EPITHELIAL CELL LINE” (KAOHSIUNG MEDICAL UNIVERSITY, priority 2008, published 2010)

Legend:
Type in all cases: in vivo
TGF-β = TGF-β expression by western blotting, bleomycin mice; conditions: lung fibrotic stage
Description: (§1) At day 28, it is observed that expression of eNOS is decreased, the expressions of TGF-β, Smad 3 and HMGB1 are increased and there is significant collagen accumulation in the tissue sections.
(§2) The TGF-β (FIG. 12), CTGF (FIG. 13) and Smad3/p-Smad3 (FIG. 14) protein expressions in the lung tissue are analyzed by western blotting.
(§3) (1) The mice lung is immersed in the tissue lysis buffer and homogenized by an ultrasound sonicator on ice.
(§4) (2) The lysate is centrifuged at 13,000 g under 4° C. for 30 mins. The supernatant is collected and the protein concentration measurement adopts the“Bio-Rad DC protein assay”. After diluting the protein as specific concentrations, the sample buffer being one fourth of the sample volume is added thereinto for heating at 100° C. for 5 mins, and the sample is loaded into each wells of SDS-PAGE gel in turn. The running buffer is added into the electrophoresis tank for electrophoresis at 100 V, the voltage is adjusted as 200 V when the protein runs to the lower gel, and the electrophoresis is stopped when the SDS-PAGE dye enters the SDS-PAGE.
(§5) (3) The PVDF membrane is rinsed ith transfer buffer for use, and the protein on the SDS-PAGE is transferred to the PVDF membrane. The SDS-PAGE layer covering on the PVDF membrane is placed in a protein transfer tank immersed with the transfer buffer with the current set at 100V. […]

Smad 3 = experiment: Smad3 expression by western blotting, bleomycin mice; conditions: lung fibrotic stage
Description: as §1, §2, §3, §4, §5

HMGB1 = HMGB1 expression, bleomycin mice; conditions: lung inflammatory stage
Description: as §1, §3, §4
(3) The PVDF membrane is rinsed ith transfer buffer for use, and the protein on the SDS-PAGE is transferred to the PVDF membrane. The SDS-PAGE layer covering on the PVDF membrane is placed in a protein transfer tank immersed with the transfer buffer with the current set at 100V. After 80 mins, the transfer is completed and then the PVDF membrane is taken out. […]

MMP-2 = experiment: Gelatin zymography of lung lavage, bleomycin mice; conditions: for MMP-2 expression in lung lavage (zymography): day 7 or day 28, p<0.05; for Expression of MMP2 in lung lavage: lung inflammatory stage
Description: (§6) The activities of MMP-2 (FIGS. 7A and 8A) and MMP-9 (FIGS. 7B and 8B) in the lung lavage of mice on day 7 (FIG. 7) and day 28 (FIG. 8) are analyzed by zymography. The expression levels are minor in the normal control group. […] The expressions of MMP-2 and MMP-9 on day 7 are higher than that on day 28. […] It is seen that KMUPs have the effect of mitigating the inflammation.
(§7) The MMPs in the lung lavaga are measured by zymography. It is known that all of the MMP-1, MMP-2, MMP-3, MMP-7 and MMP-9 can degrade the gelatin, especially the MMP-2 and MMP-9. The activity of collagenase can be analyzed by SDS-PAGE gel adding by gelatin. After the collected bronchoalveolar lavage fluid (BALF) is electrophoreted, the SDS is removed with 2.5% (v/v) Triton X-100 and the activity of collagenase is recovered to degrade the gelatin. After reacting for a period of time, the commassie blue is utilized for staining and destaining so that a transparent band in the area having the collagenase activity can be seen owing to the gelatin is degraded.
(§8) The BALF is collected and the concentration thereof is measured by Bio-Rad DC protein assay. The absorption of BALF at 595 nm wavelength is measured by an ELISA reader with a BSA standard, and the concentration of the sample is measured according to the standard curve of this absorption value.
(§9) The sample is mixed with non sample buffer. After reacting under temperature for 10 mins, the separating gel containing 0.1% gelatin is utilized for electrophoresis analysis under low temperature. While the electrophoresis is finished, the gel is immersed in 2.5% Triton X-100 buffer to react under temperature for half hour. The 2.5% Triton X-100 buffer is exchanged to react under temperature for additional half hour. The gel is immersed in the developing buffer at 37° C. for 24 hrs, stained with staining buffer for 1 hr and destained with the destaining buffer, and the transparent band can be seen.

MMP-9 = experiment: Gelatin zymography of lung lavage, bleomycin mice; conditions: for MMP-9 expression in lung lavage (zymography): day 7 or day 28, p<0.05; for Expression of MMP-9 in lung lavage: lung inflammatory stage
Description: as §6, §7, §8, §9

[1] = test system: inflammatory cells in the lung lavage; experiment: Inflammatory cells in lung lavage, bleomycin-induced IPF mice; set-up: WBC total (white blood cell total count) / NE (neutrophil) / LY (lymphocyte) / MO (monocyte) / EO (eosinophil) / BA (basophil): unit not given here; conditions: for Amount of WBC in lung lavage: lung inflammatory stage; for BA (basophil) / EO (eosinophil) / LY (lymphocyte) / MO (monocyte) / NE (neutrophil) / WBC total (white blood cell total count): lung lavage
Description: The amounts of the total cell, the neutrophill, the lymphocyte, the monocyte, the eosinophill and the basophill are analyzed by an automatic animal blood cell analyzer for evaluating the extent of the inflammation. […] The mice are euthanatized by administering the Urathane in a dose of 37.5 mg/10 g. The larynx is opened, the trachea is picked out, cut and held by a forcepts and a 0.58 mm PE tube is slowly inserted the trachea for infusing 0.5 ml PBS. The PBS is incubated for 15 seconds and then collected after gently massaging the lung tissue. 1 c.c. lung lavage is obtained after the above steps are repeated twice. The lung lavage is collected and transferred into a centrifuged tube for centrifuging at 1,200 rpm at 4° C. for 6 mins. The supernatant is collected and stored at −80° C. for zymography, and the pellet is suspended in PBS for calculating the WBC count. The pellet of the alveolar lavage is suspended in PBS and transferred into an eppendorff. The amount and kind of the inflammatory cell such as WBC total, the lymphocyte, the monocyte, the neutrophil, the eosinophil and the basophil are analyzed by an automatic animal blood cell analyzer.

[2] = day 7, dose 2.5 mg/kg (Combination: 2.5 mg/kg each drug)
[3] = day 28, dose 2.5 mg/kg (Combination: 2.5 mg/kg each drug)

With `Cn1c(=O)c2c(ncn2CCN2CCN(c3ccccc3Cl)CC2)n(C)c1=O` [KMUP-1, 7-[2-[4-(2-chlorobenzene)piperazinyl]ethyl]-1,3-dimethylxanthine] the “Expression of TGF-β” value (TGF-β) was “inhibit”, the “Expression of Smad 3” value (Smad 3) was “inhibit” and the “Expression of HMGB1” value (HMGB1) was “efficiently decrease”. For the same compound, the “MMP-2 expression in lung lavage (zymography)” value (MMP-2) was “significantly decrease”, the “Expression of MMP2 in lung lavage” value (MMP-2) was “efficiently decrease” and the “MMP-9 expression in lung lavage (zymography)” value (MMP-9) was “significantly decrease”. The “Expression of MMP-9 in lung lavage” value (MMP-9) was “efficiently decrease”, the “Amount of WBC in lung lavage” value [1] was “efficiently decrease” and the “BA (basophil)” value ([1]; day 7, dose 1 mg/kg) was 0.2 ± 0.01. For the same compound, the “EO (eosinophil)” value ([1]; day 7, dose 1 mg/kg) was 0.44 ± 0.02, the “LY (lymphocyte)” value ([1]; day 7, dose 1 mg/kg) was 1.83 ± 0.11 and the “MO (monocyte)” value ([1]; day 7, dose 1 mg/kg) was 0.12 ± 0.02. The “NE (neutrophil)” value ([1]; day 7, dose 1 mg/kg) was 0.92 ± 0.13, the “WBC total (white blood cell total count)” value ([1]; day 7, dose 1 mg/kg) was 3.51 ± 0.01 and the “BA (basophil)” value [1, 2] was 0.11 ± 0.02. The “EO (eosinophil)” value [1, 2] was 0.17 ± 0.11, the “LY (lymphocyte)” value [1, 2] was 1.81 ± 0.09 and the “MO (monocyte)” value [1, 2] was 0.07 ± 0.01. The “NE (neutrophil)” value [1, 2] was 0.91 ± 0.36, the “WBC total (white blood cell total count)” value [1, 2] was 3.2 ± 0.49 and the “BA (basophil)” value ([1]; day 7, dose 5 mg/kg) was 0.1 ± 0.02. For the same compound, the “EO (eosinophil)” value ([1]; day 7, dose 5 mg/kg) was 0.16 ± 0.01, the “LY (lymphocyte)” value ([1]; day 7, dose 5 mg/kg) was 1.76 ± 0.01 and the “MO (monocyte)” value ([1]; day 7, dose 5 mg/kg) was 0.07 ± 0.01. The “NE (neutrophil)” value ([1]; day 7, dose 5 mg/kg) was 0.33 ± 0.14, the “WBC total (white blood cell total count)” value ([1]; day 7, dose 5 mg/kg) was 2.43 ± 0.01 and the “BA (basophil)” value ([1]; day 28, dose 1 mg/kg) was 0.21 ± 0.06. For the same compound, the “EO (eosinophil)” value ([1]; day 28, dose 1 mg/kg) was 0.42 ± 0.17, the “LY (lymphocyte)” value ([1]; day 28, dose 1 mg/kg) was 1.89 ± 0.76 and the “MO (monocyte)” value ([1]; day 28, dose 1 mg/kg) was 0.2 ± 0.25. The “NE (neutrophil)” value ([1]; day 28, dose 1 mg/kg) was 0.61 ± 0.11, the “WBC total (white blood cell total count)” value ([1]; day 28, dose 1 mg/kg) was 3.41 ± 0.54 and the “BA (basophil)” value [1, 3] was 0.11 ± 0.7. For the same compound, the “EO (eosinophil)” value [1, 3] was 0.17 ± 0.12, the “LY (lymphocyte)” value [1, 3] was 1.24 ± 0.43 and the “MO (monocyte)” value [1, 3] was 0.07 ± 0.02. The “NE (neutrophil)” value [1, 3] was 0.36 ± 0.16, the “WBC total (white blood cell total count)” value [1, 3] was 1.95 ± 0.92 and the “BA (basophil)” value ([1]; day 28, dose 5 mg/kg) was 0.1 ± 0.02. For the same compound, the “EO (eosinophil)” value ([1]; day 28, dose 5 mg/kg) was 0.16 ± 0.01, the “LY (lymphocyte)” value ([1]; day 28, dose 5 mg/kg) was 1.1 ± 0.01 and the “MO (monocyte)” value ([1]; day 28, dose 5 mg/kg) was 0.07 ± 0.01. The “NE (neutrophil)” value ([1]; day 28, dose 5 mg/kg) was 0.33 ± 0.14 and the “WBC total (white blood cell total count)” value ([1]; day 28, dose 5 mg/kg) was 1.8 ± 0.01.

For `CCC(C)(C)C(=O)O[C@H]1C[C@@H](C)C=C2C=C[C@H](C)[C@H](CC[C@@H](O)C[C@@H](O)CC(=O)O)[C@H]21.Cn1c(=O)c2c(ncn2CCN2CCN(c3ccccc3Cl)CC2)n(C)c1=O` [KMUP-5], the “Expression of TGF-β” value (TGF-β) was “inhibit”, the “Expression of Smad 3” value (Smad 3) was “inhibit” and the “Expression of HMGB1” value (HMGB1) was “efficiently decrease”. For the same compound, the “MMP-2 expression in lung lavage (zymography)” value (MMP-2) was “significantly decrease”, the “Expression of MMP2 in lung lavage” value (MMP-2) was “efficiently decrease” and the “MMP-9 expression in lung lavage (zymography)” value (MMP-9) was “significantly decrease”. The “Expression of MMP-9 in lung lavage” value (MMP-9) was “efficiently decrease”, the “Amount of WBC in lung lavage” value [1] was “efficiently decrease” and the “BA (basophil)” value [1, 2] was 0.02 ± 0.01. For the same compound, the “EO (eosinophil)” value [1, 2] was 0.06 ± 0.04, the “LY (lymphocyte)” value [1, 2] was 0.45 ± 0.17 and the “MO (monocyte)” value [1, 2] was 0.03 ± 0.02. For the same compound, the “NE (neutrophil)” value [1, 2] was 0.18 ± 0.08, the “WBC total (white blood cell total count)” value [1, 2] was 0.74 ± 0.21 and the “BA (basophil)” value [1, 3] was 0.01 ± 0.16. For the same compound, the “EO (eosinophil)” value [1, 3] was 0.05 ± 0.3, the “LY (lymphocyte)” value [1, 3] was 1.32 ± 1.59 and the “MO (monocyte)” value [1, 3] was 0.06 ± 0.11. The “NE (neutrophil)” value [1, 3] was 0.14 ± 0.39 and the “WBC total (white blood cell total count)” value [1, 3] was 1.58 ± 2.24.
